Patent US6140368A, “Naphthols useful in antiviral methods” (The Regents of the University of California, priority 1998, dated 2000)
Where two headings read alike, the source gives them in different places.

What was measured:
HIV integrase [1] = target: T1, HIV integrase (Human immunodeficiency virus type 1 group M subtype B, UniProt P04585); test: biochemical; details: read-out: Inhibition of strand transfer (IC50)
HIV integrase [2] = target: T1, HIV integrase; test: biochemical; details: read-out: Inhibition of 3' processing activity (IC50)
[3] = target: HIV reverse transcriptase (Human immunodeficiency virus type 1 group M subtype B, UniProt P03366); test: Reverse transcriptase scintillation proximity assay (Example 4, Table 2); format: biochemical; details: 10 μM inhibitor, relative to dimethyl sulfoxide = 100%; for remaining activity at 10 µM: 0.05 h, read-out: % RT activity remaining at 10 μM; for % RT activity remaining at 10 μM: 3 min
Protocol: Reverse transcriptase ("RT") activity is measured using a scintillation proximity assay kit available from Amersham Life Sciences, Inc., which uses a biotin/streptavidin bead capture system. RNA-dependent polymerase activity is measured using purified […] and a synthetic 17mer/50mer RNA-DNA template-primer containing biotin at the 5' end of the DNA. The template-primer, buffer, dNTP, and inhibitor are incubated for 10 minutes at 37° C. before the RT is added. The final 100 μl reaction mixture contains: 39 nm of template primer, buffer (40 mM tris HCl at pH 8.0, 10 mM MgCl2, 60 mM KCl, 10 mM dithiothreitol); 75 nM of each dNTP except dTTP; 25 nM dTTP and 35 nM tritium labeled d*TTP; 10 μM inhibitor; and 1.0-2.0 μg of RT. After three minute incubation, the reaction is quenched with 40 μl of 0.56M EDTA. Then 10 μl of streptavidin SPA beads (in suspension) are added and incubated at 37° C. for 10 minutes. Finally, 850 μl of a buffer containing 10 mM Tris HCl pH 7.4 and 0.15M NaCl is added. The signal is produced by biotinylated polymers incorporating d*TTP binding to the streptavidin beads which stimulate the scintillant. The amount of d*TTP incorporated in the polymer is measured with a scintillation counter.
Compounds showing good inhibition will give a low number of counts/min (cpm). This number is related to a standard, dimethyl sulfoxide, which is given an arbitrary 100% relative activity. All cpm data in a single run are given a percent of this standard.

SMILES	IC50 (HIV integrase [1]) [nM]	IC50 (HIV integrase [2]) [nM]	remaining activity at 10 µM [3] [%]	% RT activity remaining at 10 μM [3]
COc1ccc(C(=O)O)c(N=Nc2c(S(=O)(=O)O)cc3cc(NC(=O)C(=O)Nc4ccc5c(O)c(N=Nc6c(C(=O)O)ccc(OC)c6OC)c(S(=O)(=O)O)cc5c4)ccc3c2O)c1OC [Compound 101]	2000	500	–	–
O=C(Nc1ccc2c(O)c(N=Nc3ccc(I)cc3)c(S(=O)(=O)O)cc2c1)Nc1ccc2c(O)c(N=Nc3ccc(I)cc3)c(S(=O)(=O)O)cc2c1 [Compound 71]	1000	900	–	–
C=Cc1ccc(N=Nc2c(S(=O)(=O)O)cc3cc(NC(=O)Nc4ccc5c(O)c(N=Nc6ccc(C=C)cc6)c(S(=O)(=O)O)cc5c4)ccc3c2O)cc1 [Compound 74]	1500	2000	–	–
COc1cc(N=Nc2c(S(=O)(=O)O)cc3cc(NC(=O)C(=O)Nc4ccc5c(O)c(N=Nc6cc(OC)c(OC)c(OC)c6)c(S(=O)(=O)O)cc5c4)ccc3c2O)cc(OC)c1OC [Compound 110]	400	1100	–	–
O=C(Nc1ccc2c(O)c(N=Nc3cccc(C(=O)O)c3)c(S(=O)(=O)O)cc2c1)C(=O)Nc1ccc2c(O)c(N=Nc3cccc(C(=O)O)c3)c(S(=O)(=O)O)cc2c1 [Compound 96]	400	500	–	–
Cc1cc2nc(N=Nc3c(S(=O)(=O)O)cc4cc(NC(=O)C(=O)Nc5ccc6c(O)c(N=Nc7nc8cc(C)c(C)cc8[nH]7)c(S(=O)(=O)O)cc6c5)ccc4c3O)[nH]c2cc1C [Compound 114]	300	1000	–	–
O=C(O)CCc1ccc(N=Nc2c(S(=O)(=O)O)cc3cc(NC(=O)C(=O)Nc4ccc5c(O)c(N=Nc6ccc(CCC(=O)O)cc6)c(S(=O)(=O)O)cc5c4)ccc3c2O)cc1 [Compound 94]	400	1000	–	–
O=C(Nc1ccc2c(O)c(N=Nc3ccccc3)c(S(=O)(=O)O)cc2c1)Nc1ccc2c(O)c(N=Nc3ccccc3)c(S(=O)(=O)O)cc2c1 [Compound 62]	500	400	–	–
O=C(O)CCc1ccc(N=Nc2c(S(=O)(=O)O)cc3cc(NC(=O)Nc4ccc5c(O)c(N=Nc6ccc(CCC(=O)O)cc6)c(S(=O)(=O)O)cc5c4)ccc3c2O)cc1 [Compound 68]	400	400	–	–
COc1cc(N=Nc2c(S(=O)(=O)O)cc3cc(NC(=O)C(=O)Nc4ccc5c(O)c(N=Nc6cc(OC)c(C(=O)O)cc6Cl)c(S(=O)(=O)O)cc5c4)ccc3c2O)c(Cl)cc1C(=O)O [Compound 100]	700	400	–	–
CC(=O)Nc1ccc(N=Nc2c(S(=O)(=O)O)cc3cc(NC(=O)C(=O)Nc4ccc5c(O)c(N=Nc6ccc(NC(C)=O)cc6)c(S(=O)(=O)O)cc5c4)ccc3c2O)cc1 [Compound 108]	700	1000	–	–
COc1cc(N=Nc2c(S(=O)(=O)O)cc3cc(NC(=O)Nc4ccc5c(O)c(N=Nc6cc(OC)c(OC)c(OC)c6)c(S(=O)(=O)O)cc5c4)ccc3c2O)cc(OC)c1OC [Compound 66]	500	800	–	–
O=C(Nc1ccc2c(O)c(N=Nc3ccc(Cl)cc3)c(S(=O)(=O)O)cc2c1)Nc1ccc2c(O)c(N=Nc3ccc(Cl)cc3)c(S(=O)(=O)O)cc2c1 [Compound 70]	> 3000	> 3000	–	–
O=C(Nc1ccc2c(O)c(N=Nc3ccc(F)cc3)c(S(=O)(=O)O)cc2c1)Nc1ccc2c(O)c(N=Nc3ccc(F)cc3)c(S(=O)(=O)O)cc2c1 [Compound 69]	900	700	–	–
COc1ccc(N=Nc2c(S(=O)(=O)O)cc3cc(NC(=O)Nc4ccc5c(O)c(N=Nc6ccc(OC)cc6)c(S(=O)(=O)O)cc5c4)ccc3c2O)cc1 [Compound 73]	600	1000	–	–
O=C(Nc1ccc2c(O)c(N=Nc3ncn[nH]3)c(S(=O)(=O)O)cc2c1)Nc1ccc2c(O)c(N=Nc3ncn[nH]3)c(S(=O)(=O)O)cc2c1 [Compound 65]	500	800	–	–
O=C(O)CC(C(=O)O)c1ccc(N=Nc2c(S(=O)(=O)O)cc3cc(NC(=O)C(=O)Nc4ccc5c(O)c(N=Nc6ccc(C(CC(=O)O)C(=O)O)cc6)c(S(=O)(=O)O)cc5c4)ccc3c2O)cc1 (centres unmarked) [Compound 97]	1000	500	–	–
CC(=O)Nc1ccc(N=Nc2c(S(=O)(=O)O)cc3cc(NC(=O)Nc4ccc5c(O)c(N=Nc6ccc(NC(C)=O)cc6)c(S(=O)(=O)O)cc5c4)ccc3c2O)cc1 [Compound 72]	500	1000	–	–
O=C(Nc1ccc2c(O)c(N=Nc3cc(C(=O)O)ccc3C(=O)O)c(S(=O)(=O)O)cc2c1)C(=O)Nc1ccc2c(O)c(N=Nc3cc(C(=O)O)ccc3C(=O)O)c(S(=O)(=O)O)cc2c1 [Compound 104]	400	600	–	–
O=C(Nc1ccc2cc(S(=O)(=O)O)cc(O)c2c1)Nc1ccc2cc(S(=O)(=O)O)cc(O)c2c1 [Compound 77]	–	–	84	–

SMILES	IC50 (HIV integrase [1]) [nM]	IC50 (HIV integrase [2]) [nM]	remaining activity at 10 µM [3] [%]	% RT activity remaining at 10 μM [3]
O=C(O)/C=C/c1ccc(N=Nc2c(S(=O)(=O)O)cc3cc(NC(=O)c4cccc(C(=O)Nc5ccc6c(O)c(N=Nc7ccc(/C=C/C(=O)O)cc7)c(S(=O)(=O)O)cc6c5)n4)ccc3c2O)cc1 [Compound 123]	–	–	0.2	–
CC(=O)Nc1ccc(N=Nc2c(S(=O)(=O)O)cc3cc(NC(=O)c4ccc(C(=O)Nc5ccc6c(O)c(N=Nc7ccc(NC(C)=O)cc7)c(S(=O)(=O)O)cc6c5)cc4)ccc3c2O)cc1 [Compound 174]	–	–	28	–
O=C(Nc1ccc2ccc(S(=O)(=O)O)cc2c1)Nc1ccc2ccc(S(=O)(=O)O)cc2c1 [Compound 80]	–	–	84	–
O=C(Nc1cnc2ccccc2c1)Nc1ccc2c(O)cc(S(=O)(=O)O)cc2c1 [Compound 14]	–	–	90	–
O=C(O)Cc1ccc(N=Nc2c(S(=O)(=O)O)cc3cc(NC(=O)c4cc(=O)cc(C(=O)Nc5ccc6c(O)c(N=Nc7ccc(CC(=O)O)cc7)c(S(=O)(=O)O)cc6c5)o4)ccc3c2O)cc1 [Compound 133]	–	–	0.4	–
COc1cc(N=Nc2c(S(=O)(=O)O)cc3cc(NC(=O)c4ccc(C(=O)Nc5ccc6c(O)c(N=Nc7cc(OC)c(OC)cc7C(=O)O)c(S(=O)(=O)O)cc6c5)cc4)ccc3c2O)c(C(=O)O)cc1OC [Compound 179]	–	–	7.5	–
CCOC(=O)c1cccc(NC(=O)Nc2ccc3cc(S(=O)(=O)O)cc(O)c3c2)c1 [Compound 75]	–	–	85	–
CCOC(=O)c1ccc(N=Nc2c(S(=O)(=O)O)cc3cc(NC(=O)Nc4ccc5c(O)c(N=Nc6ccc(C(=O)OCC)cc6)c(S(=O)(=O)O)cc5c4)ccc3c2O)cc1 [Compound 44]	–	–	19	–
O=C(O)c1ccc(N=Nc2c(S(=O)(=O)O)cc3cc(NC(=O)c4ccc(C(=O)Nc5ccc6c(O)c(N=Nc7ccc(C(=O)O)cc7)c(S(=O)(=O)O)cc6c5)cc4)ccc3c2O)cc1 [Compound 162]	–	–	–	5.9%
O=C(Nc1ccc2c(O)cc(S(=O)(=O)O)cc2c1)Nc1cccc2c1C(=O)c1ccccc1C2=O [Compound 20]	–	–	86	–
O=C(Nc1ccc2cc(S(=O)(=O)O)ccc2c1)Nc1ccc2cc(S(=O)(=O)O)ccc2c1 [Compound 82]	–	–	92	–
O=C(O)c1ccc(N=Nc2c(S(=O)(=O)O)cc3cc(NC(=O)c4ccc(C(=O)Nc5ccc6c(O)c(N=Nc7ccc(C(=O)O)cc7)c(S(=O)(=O)O)cc6c5)cc4)ccc3c2O)cc1 [Compound 169]	–	–	–	.15%
Cc1cc2nc(N=Nc3c(S(=O)(=O)O)cc4cc(NC(=O)c5ccc(C(=O)Nc6ccc7c(O)c(N=Nc8nc9cc(C)c(C)cc9[nH]8)c(S(=O)(=O)O)cc7c6)cc5)ccc4c3O)[nH]c2cc1C [Compound 183]	–	–	36	–
O=C(O)c1cccc(N=Nc2c(S(=O)(=O)O)cc3cc(NC(=O)c4cc(O)cc(C(=O)Nc5ccc6c(O)c(N=Nc7cccc(C(=O)O)c7)c(S(=O)(=O)O)cc6c5)n4)ccc3c2O)c1 [Compound 150]	–	–	0.6	–
Cc1cc(C(=O)O)ccc1N=Nc1c(S(=O)(=O)O)cc2cc(NC(=O)c3cccc(C(=O)Nc4ccc5c(O)c(N=Nc6ccc(C(=O)O)cc6C)c(S(=O)(=O)O)cc5c4)n3)ccc2c1O [Compound 130]	–	–	0.35	–
O=C(Nc1ccc2c(O)cc(S(=O)(=O)O)cc2c1)Nc1ccc2cc(S(=O)(=O)O)cc(S(=O)(=O)O)c2c1 [Compound 8]	–	–	83	–
O=C(O)c1ccc(N=Nc2c(S(=O)(=O)O)cc3cc(Nc4c(Nc5ccc6c(O)c(N=Nc7ccc(C(=O)O)cc7)c(S(=O)(=O)O)cc6c5)c(=O)c4=O)ccc3c2O)cc1 [Compound 186]	–	–	0.5	–
O=C(O)c1cccc(N=Nc2c(S(=O)(=O)O)cc3cc(NC(=O)c4ccc(C(=O)Nc5ccc6c(O)c(N=Nc7cccc(C(=O)O)c7)c(S(=O)(=O)O)cc6c5)cc4)ccc3c2O)c1 [Compound 170]	–	–	0.1	–
O=C(Nc1ccc2c(O)cccc2c1)Nc1ccc2c(O)cc(S(=O)(=O)O)cc2c1 [Compound 6]	–	–	84	–
O=C(O)c1ccc(Cl)c(N=Nc2c(S(=O)(=O)O)cc3cc(NC(=O)c4ccc(C(=O)Nc5ccc6c(O)c(N=Nc7cc(C(=O)O)ccc7Cl)c(S(=O)(=O)O)cc6c5)cc4)ccc3c2O)c1 [Compound 172]	–	–	0.08	–
